The target of the experiment is T1, AedaeACPR-I (Aedes aegypti, UniProt A0A2L0VBG2).
T1 construct: only the ACPR-I transcript yields a complete receptor protein which we functionally deorphanized; expressed in transfected cells; host or cells: CHO-K1 cells stably expressing aequorin, transient transfection with pcDNA3.1+
T1 sequence (A0A2L0VBG2 1-577): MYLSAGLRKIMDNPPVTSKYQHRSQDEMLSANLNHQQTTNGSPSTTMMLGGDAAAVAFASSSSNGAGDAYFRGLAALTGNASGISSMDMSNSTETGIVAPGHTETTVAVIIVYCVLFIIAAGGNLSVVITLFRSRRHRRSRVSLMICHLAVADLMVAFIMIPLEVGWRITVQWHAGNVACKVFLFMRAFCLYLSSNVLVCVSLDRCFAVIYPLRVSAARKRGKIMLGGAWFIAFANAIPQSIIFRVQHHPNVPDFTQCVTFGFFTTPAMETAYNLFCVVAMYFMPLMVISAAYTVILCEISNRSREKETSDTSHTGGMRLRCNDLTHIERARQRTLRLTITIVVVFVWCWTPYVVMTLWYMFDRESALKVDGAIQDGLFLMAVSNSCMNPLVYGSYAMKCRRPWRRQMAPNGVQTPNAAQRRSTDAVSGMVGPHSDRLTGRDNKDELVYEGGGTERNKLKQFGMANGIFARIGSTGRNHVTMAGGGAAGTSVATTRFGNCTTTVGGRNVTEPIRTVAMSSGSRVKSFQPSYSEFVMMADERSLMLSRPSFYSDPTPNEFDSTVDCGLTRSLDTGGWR
As to the kind of experiment: Heterologous receptor functional assay (aequorin bioluminescence) in CHO-K1 cells transiently expressing AedaeACPR-I. In kind it is cell-based. The following applies: for EC50: CHOK1-aeq cells transiently expressing AedaeACPR-I, peptide doses 10^-12 to 10^-5 M in quadruplicate, luminescence response, average of multiple independent biological replicates (four independent transfections); for Receptor activation (luminescence response): CHO-K1 aequorin cells transiently expressing AedaeACPR-I, doses 10^-12 to 10^-5 M. On the procedure: Functional activation of AedaeACPR-I was assayed using a previously established cell culture system involving a recombinant Chinese hamster ovary (CHO)-K1 cell line stably expressing aequorin[35]. […] At 48 hours post-transfection, cells were detached from the culture flasks using Dulbecco’s phosphate buffered saline (DPBS; Wisent Corporation, St. Bruno, QC) containing 5 mM EDTA and resuspended in BSA medium (DMEM-F12 media containing 0.1% bovine serum albumin, 1X antimycotic-antibiotic) to a concentration of 10^6–10^7 cells/mL. Coelenterazine h (Promega, Madison, WI, USA) was added to the cells to a final concentration of 5 μM, and incubated for 3 hours in the dark at room temperature on a stirrer set at 200 rpm. The cell suspension was then diluted 10-fold and incubated at room temperature for an additional hour. Serial dilutions of peptide ligands (Table 1) were prepared in BSA medium (10^−5 to 10^−12 M), and loaded in quadruplicates into 96-well luminescence plates (Greiner Bio-One, Germany). All peptides were commercially synthesized (Genscript, Piscataway, NJ) at a purity >90% and were prepared in dimethyl sulfoxide at a stock concentration of 1 mM. Cells were loaded into each well with an automatic injector unit and luminescence was measured for 20 seconds using a Synergy 2 Multi-Mode Microplate Reader (BioTek, Winooski, VT, USA). BSA medium alone was utilized as a negative control and 5 × 10^−5 M ATP was used as a positive control, which acts on endogenously expressed purinoceptors[36],[37]. EC50 values were calculated in GraphPad Prism 7.02 (GraphPad Software, San Diego, USA) from dose-dependent curves from four independent transfections.
A heterologous receptor functional assay involving CHO-K1 cells was used to validate the cloned receptor as a bona fide ACP receptor. […] Our findings in this study are consistent with past reports, since similar binding specificity of ACP receptors has been observed previously in T. castaneum, A. gambiae, and R. prolixus with EC50 values reported in the low nanomolar range[17],[25]. Additionally, previous research in the aforementioned insects have also observed that the AKH receptors are not activated by ACP or corazonin peptides, and similarly, the corazonin receptors are not activated by ACP or AKH peptides[17],[25],[43],[44].
Figure 4 Functional heterologous receptor assay of CHO-K1 aequorin cells transiently expressing the AedaeACPR-I. (a) Dose dependent effect on the bioluminescence response (mean 0–15 s) after the addition of between 10^−12–10^−5 M doses of A. aegypti ACP, AKH and CRZ peptides. Luminescence is normalized to the BSA control and plotted relative to the maximal response (10^−5 M). […] (b) Kinetics of the bioluminescence response measured between 0–5 s, 6–10 s, and 11–20 s time intervals, following the addition of 1 × 10^−6 M of the above peptides normalized to vehicle control (BSA media). Luminescence is normalized to the BSA control and plotted relative to the maximal response (10^−5 M). Data represent the mean ± standard error (n = 4).

“Also recorded” adds a separate entry of the source. Non-standard residues stand in square brackets, D forms with d. Residues, ends and D or L forms follow the SMILES beside them. No end group written: not given here. pGlu = O=C1CC[C@@H](C(=O)O)N1

Consider `CC(C)[C@H](NC(=O)[C@@H]1CCC(=O)N1)C(=O)N[C@H](C(=O)N[C@@H](Cc1ccccc1)C(=O)N[C@@H](CO)C(=O)N[C@@H](CCCNC(=N)N)C(=O)N[C@@H](CC(=O)O)C(=O)N[C@@H](Cc1c[nH]c2ccccc12)C(=O)N[C@@H](CC(N)=O)C(=O)N[C@@H](C)C(N)=O)[C@@H](C)O` [AedaeACP] ([pGlu]VTFSRDWNA-NH2), for which the 50% effective concentration (EC50) turned out to be 0.0103 µM. Take `CC(C)C[C@H](NC(=O)[C@@H]1CCC(=O)N1)C(=O)N[C@H](C(=O)N[C@@H](Cc1ccccc1)C(=O)N[C@H](C(=O)N1CCC[C@H]1C(=O)N[C@@H](CO)C(=O)N[C@@H](Cc1c[nH]c2ccccc12)C(N)=O)[C@@H](C)O)[C@@H](C)O` [AedaeAKH] ([pGlu]LTFTPSW-NH2): the “Receptor activation (luminescence response)” value (shortened to “Receptor activation”) is recorded as “no detectable luminescence indicative of receptor activation; also recorded: No receptor activation was detected” and the EC50 was greater than 10 µM. For the compound GPTVGLFAFPRV-NH2 [AedaeCAPA1], the “Receptor activation” value is given as “No receptor activation was detected” and the 50% effective concentration (EC50) is greater than 10 µM. Moreover, the “Receptor activation” value (listed as AedaeCAPA-1) is “no detectable luminescence indicative of receptor activation”. Turning to `C[C@@H](O)[C@H](NC(=O)[C@H](CC(N)=O)NC(=O)[C@H](Cc1c[nH]c2ccccc12)NC(=O)CNC(=O)[C@H](CCCNC(=N)N)NC(=O)[C@H](CO)NC(=O)[C@H](Cc1ccc(O)cc1)NC(=O)[C@H](CCC(N)=O)NC(=O)[C@H](Cc1ccccc1)NC(=O)[C@@H](NC(=O)[C@@H]1CCC(=O)N1)[C@@H](C)O)C(=O)N[C@@H](CC(N)=O)C(N)=O` [AedaeCRZ] ([pGlu]TFQYSRGWNTN-NH2), the “Receptor activation” value is “no detectable luminescence indicative of receptor activation; also recorded: No receptor activation was detected”. As to AGNSGANSGMWFGPRL-NH2 [AedaeCAPA-PK1], the EC50 is greater than 10 µM. The “Receptor activation” value (listed as AedaePK1) is reported as “no detectable luminescence indicative of receptor activation; also recorded: No receptor activation was detected”.

These data come from PMC5794978, “Molecular identification, transcript expression, and functional deorphanization of the adipokinetic hormone/corazonin-related peptide receptor in the disease vector, Aedes aegypti” (Scientific Reports, 2018).
